System: Artemia
Assay: Toxicity against brine shrimp
Assay type: organism-based
Conditions: in vivo

COC(=O)C[C@@H]1C(C(=O)O[C@H]2C[C@@H]3C(C(=O)OC)=CO[C@@H](O)[C@@H]3[C@H]2C)=CO[C@@H](C)[C@H]1C=O [FLORIBUNDAL]
Activity: Non-toxic
